Assay results: PubChem BioAssay AID256 (DTP/NCI, 2004)
Values joined by “and” are separate entries in the source; they are usually repeats but may differ in a detail not shown here. Identical values can stand only once. Toxic doses and inconclusive results are not listed. The calls were made as follows: active = survival T/C of 150% or more; inactive = T/C below 125% in these data.

Tested on: CD2F1 mice, L1210 leukemia ip, survival T/C
Test: NCI In Vivo Anticancer Drug Screen. Data for tumor model L1210 Leukemia (intraperitoneal) in CD2F1 (CDF1) mice
Details: endpoint: mean survival time, higher = longer survival
Procedure, shortened: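 Activity against a transplanted murine tumor was judged by comparing the compound group with a vehicle group. The outcome in the treated animals was divided by that in the controls.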

[1] = dose: 100.0 mg/kg/injection, schedule: Q01DX009 (ip), vehicle: saline with Tween-80
[2] = dose: 200.0 mg/kg/injection, schedule: Q01DX009 (ip), vehicle: saline with Tween-80
[3] = dose: 400.0 mg/kg/injection, schedule: Q01DX009 (ip), vehicle: saline with Tween-80
[4] = dose: 100.0 mg/kg/injection, schedule: Q04DX003 (ip), vehicle: saline with Tween-80
[5] = dose: 400.0 mg/kg/injection, schedule: Q04DX003 (ip), vehicle: saline with Tween-80
[6] = dose: 50.0 mg/kg/injection, schedule: Q01DX009 (ip), vehicle: saline with Tween-80
[7] = dose: 75.0 mg/kg/injection, schedule: Q01DX001 (ip), vehicle: saline
[8] = dose: 150.0 mg/kg/injection, schedule: Q01DX001 (ip), vehicle: saline
[9] = dose: 300.0 mg/kg/injection, schedule: Q01DX001 (ip), vehicle: saline
[10] = dose: 200.0 mg/kg/injection, schedule: Q04DX003 (ip), vehicle: saline with Tween-80

Measured: T/C

c1ccc(Oc2cc[c]([Sn]([c]3ccccc3)([c]3ccccc3)[c]3ccc(Oc4ccccc4)cc3)cc2)cc1
inactive: [1] 106 % of control | [2] 100 % of control | [3] 98 % of control

c1ccc(C2=NN(c3ccccc3)CN(c3ccccc3)N2)cc1
inactive: [1] 106 % of control | [2] 97 % of control | [3] 96 % of control

C=CC[n+]1ccc2ccccc2c1
inactive: dose: 100.0 mg/kg/injection, schedule: Q04DX003 (ip), vehicle: saline sonified 97 % of control

CC1CCCNC1 (stereo unspecified)
inactive: [4] 97 % of control | [5] 93 % of control

COC(=O)c1ccc(OCCOc2ccc(C(C)(C)CC(C)(C)C)cc2)c(N)c1
inactive: dose: 100.0 mg/kg/injection, schedule: Q04DX003 (ip), vehicle: Klucel (hydroxypropylcellulose) (HPC) 94 % of control | dose: 200.0 mg/kg/injection, schedule: Q04DX003 (ip), vehicle: Klucel (hydroxypropylcellulose) (HPC) 100 % of control | dose: 400.0 mg/kg/injection, schedule: Q04DX003 (ip), vehicle: Klucel (hydroxypropylcellulose) (HPC) 101 % of control

CC(C)(C)NC(=O)Cc1ccccc1
inactive: [6] 95 % of control | [1] 97 % of control | [2] 95 % of control

CCCCCCCCCCCCCCCC(=O)N(C/C=C/CN(C(=O)CCCCCCCCCCCCCCC)C(C)CCCN(CC)CC)C(C)CCCN(CC)CC (stereo unspecified)
inactive: dose: 12.5 mg/kg/injection, schedule: Q01DX009 (ip), vehicle: other 97 % of control | dose: 25.0 mg/kg/injection, schedule: Q01DX009 (ip), vehicle: other 94 % of control

O=C(O)CNCNCC(=O)O
inactive: dose: 100.0 mg/kg/injection, schedule: Q04DX002 (ip), vehicle: saline 90 % of control | dose: 200.0 mg/kg/injection, schedule: Q04DX002 (ip), vehicle: saline 86 % of control

C[S+](C)CC(C)(C)CI
inactive: dose: 25.0 mg/kg/injection, schedule: Q01DX001 (ip), vehicle: saline 100 % of control | dose: 50.0 mg/kg/injection, schedule: Q01DX001 (ip), vehicle: saline 110 % of control | dose: 100.0 mg/kg/injection, schedule: Q01DX001 (ip), vehicle: saline 100 % of control and 101 % of control

O=P1(Oc2ccccc2)NCC(Br)CO1 (stereo unspecified)
inactive: dose: 18.8 mg/kg/injection, schedule: Q01DX001 (ip), vehicle: other 98 % of control | dose: 31.25 mg/kg/injection, schedule: Q01DX001 (ip), vehicle: other 104 % of control | dose: 37.5 mg/kg/injection, schedule: Q01DX001 (ip), vehicle: other 98 % of control | dose: 62.5 mg/kg/injection, schedule: Q01DX001 (ip), vehicle: other 107 % of control | dose: 75.0 mg/kg/injection, schedule: Q01DX001 (ip), vehicle: other 105 % of control | dose: 125.0 mg/kg/injection, schedule: Q01DX001 (ip), vehicle: other 94 % of control | dose: 150.0 mg/kg/injection, schedule: Q01DX001 (ip), vehicle: other 113 % of control | dose: 250.0 mg/kg/injection, schedule: Q01DX001 (ip), vehicle: other 100 % of control | dose: 300.0 mg/kg/injection, schedule: Q01DX001 (ip), vehicle: other 107 % of control | dose: 500.0 mg/kg/injection, schedule: Q01DX001 (ip), vehicle: other 100 % of control

CCCOc1cc[n+]([O-])c2ccccc12
inactive: dose: 100.0 mg/kg/injection, schedule: Q04DX002 (ip), vehicle: saline with Tween-80 94 % of control | dose: 200.0 mg/kg/injection, schedule: Q04DX002 (ip), vehicle: saline with Tween-80 94 % of control

CC(Cc1ccccc1)NC=O (stereo unspecified)
inactive: [6] 97 % of control | [1] 97 % of control

CCN(CC)P(=O)(NCCCl)OC (stereo unspecified)
inactive: dose: 100.0 mg/kg/injection, schedule: Q01DX009 (ip), vehicle: DMSO 103 % of control

CCCCCC/C(C)=C(/C#N)C(=O)OC
inactive: [7] 94 % of control | [8] 97 % of control | [9] 96 % of control

O=C1/C(=C/c2ccccc2)Cc2ccccc21
inactive: [1] 94 % of control | [2] 91 % of control | [3] 89 % of control

CSc1ccc(NC(=O)Nc2nccs2)cc1
inactive: dose: 100.0 mg/kg/injection, schedule: Q01DX009 (ip), vehicle: saline sonified 103 % of control | dose: 200.0 mg/kg/injection, schedule: Q01DX009 (ip), vehicle: saline sonified 106 % of control | dose: 400.0 mg/kg/injection, schedule: Q01DX009 (ip), vehicle: saline sonified 100 % of control

O=C1c2ccccc2C(=O)c2c1ccc(O)c2O
inactive: [1] 97 % of control | [4] 102 % of control | [2] 97 % of control | [10] 100 % of control | [3] 90 % of control | [5] 100 % of control

COC(=O)c1cc(Br)c(I)c([N+](=O)[O-])c1
inactive: [1] 102 % of control | [4] 95 % of control | [2] 108 % of control | [10] 106 % of control | [3] 105 % of control | [5] 97 % of control

CCOC(=O)Nc1ccccc1F
inactive: [1] 98 % of control | [2] 107 % of control | [3] 95 % of control

Cc1ncc2c(=O)[nH]cnc2n1
inactive: [4] 93 % of control | [10] 91 % of control | [5] 90 % of control

CC(=O)Nc1ncc2ccccc2c1-c1ccc(N(CCOS(=O)(=O)c2ccc(C)cc2)CCOS(=O)(=O)c2ccc(C)cc2)cc1
inactive: dose: 25.0 mg/kg/injection, schedule: Q04DX003 (ip), vehicle: DMSO 108 % of control | dose: 50.0 mg/kg/injection, schedule: Q04DX003 (ip), vehicle: DMSO 104 % of control | dose: 100.0 mg/kg/injection, schedule: Q04DX003 (ip), vehicle: DMSO 110 % of control | dose: 200.0 mg/kg/injection, schedule: Q04DX003 (ip), vehicle: DMSO 116 % of control | dose: 400.0 mg/kg/injection, schedule: Q04DX003 (ip), vehicle: DMSO 108 % of control

COc1ccc(-c2cc(=O)c3ccc(O)cc3o2)cc1
inactive: [7] 104 % of control | [8] 90 % of control | [9] 104 % of control

C=C1C(C)C2C(Cc3ccccc3)NC(=O)C23C(OC(C)=O)/C=C/C(C)(O)CC(C)C/C=C/C3C1O (stereo unspecified)
inactive: dose: 0.37 mg/kg/injection, schedule: Q01DX009 (ip), vehicle: Klucel (hydroxypropylcellulose) (HPC) 95 % of control | dose: 0.75 mg/kg/injection, schedule: Q01DX009 (ip), vehicle: Klucel (hydroxypropylcellulose) (HPC) 100 % of control | dose: 1.5 mg/kg/injection, schedule: Q01DX009 (ip), vehicle: Klucel (hydroxypropylcellulose) (HPC) 96 % of control | dose: 3.0 mg/kg/injection, schedule: Q01DX009 (ip), vehicle: Klucel (hydroxypropylcellulose) (HPC) 96 % of control | dose: 6.0 mg/kg/injection, schedule: Q01DX009 (ip), vehicle: Klucel (hydroxypropylcellulose) (HPC) 105 % of control | dose: 12.0 mg/kg/injection, schedule: Q01DX009 (ip), vehicle: Klucel (hydroxypropylcellulose) (HPC) 105 % of control | dose: 375.0 micrograms/kg/injection, schedule: Q01DX009 (ip), vehicle: Klucel (hydroxypropylcellulose) (HPC) 106 % of control | dose: 750.0 micrograms/kg/injection, schedule: Q01DX009 (ip), vehicle: Klucel (hydroxypropylcellulose) (HPC) 96 % of control | dose: 1500.0 micrograms/kg/injection, schedule: Q01DX009 (ip), vehicle: Klucel (hydroxypropylcellulose) (HPC) 104 % of control | dose: 3000.0 micrograms/kg/injection, schedule: Q01DX009 (ip), vehicle: Klucel (hydroxypropylcellulose) (HPC) 101 % of control | dose: 6000.0 micrograms/kg/injection, schedule: Q01DX009 (ip), vehicle: Klucel (hydroxypropylcellulose) (HPC) 96 % of control

N#CCCN(N=O)C(=O)Nc1ccccc1
inactive: dose: 6.25 mg/kg/injection, schedule: Q01DX Z (ip), vehicle: carboxymethylcellulose (CMC) 110 % of control | dose: 12.5 mg/kg/injection, schedule: Q01DX Z (ip), vehicle: carboxymethylcellulose (CMC) 115 % of control | dose: 75.0 mg/kg/injection, schedule: Q01DX Z (ip), vehicle: carboxymethylcellulose (CMC) 102 % of control

C=C(C)CSC(=S)NNc1ccccc1
inactive: dose: 25.0 mg/kg/injection, schedule: Q01DX009 (ip), vehicle: acetone 93 % of control | dose: 50.0 mg/kg/injection, schedule: Q01DX009 (ip), vehicle: acetone 96 % of control | dose: 100.0 mg/kg/injection, schedule: Q01DX009 (ip), vehicle: acetone 102 % of control

NC(CSCc1cccs1)C(=O)O (stereo unspecified)
inactive: dose: 25.0 mg/kg/injection, schedule: Q01DX009 (ip), vehicle: saline 94 % of control | dose: 50.0 mg/kg/injection, schedule: Q01DX009 (ip), vehicle: saline 100 % of control | dose: 100.0 mg/kg/injection, schedule: Q01DX009 (ip), vehicle: saline 90 % of control | dose: 200.0 mg/kg/injection, schedule: Q01DX009 (ip), vehicle: saline 101 % of control | dose: 400.0 mg/kg/injection, schedule: Q01DX009 (ip), vehicle: saline 95 % of control

[NH-]c1ccccc1C(=O)O.[NH-]c1ccccc1C(=O)O.[Ni+2]
inactive: [4] 93 % of control | [10] 107 % of control
